Source: US20230233541A1, “SUBSTITUTED BENZAMIDES AS MODULATORS OF TREX1” (Constellation Pharmaceuticals, Inc., priority 2020, published 2023)

How the values were obtained:
[1] = biological target: T1, human TREX2 (residues M44-A279) (Homo sapiens, UniProt Q9BQ50); assay: TREX2 Biochemical Assay (fluorescence assay, degradation of dsDNA substrate); conditions: 2.5 nM TREX2, 60 nM dsDNA substrate, 25 minutes at room temperature; read-out: hTREX2 EC50
T1 construct: human TREX2 (residues M44-A279, expressed in E. coli); His-Tev (His tag with TEV protease site) (N); made in house; host or cells: E. coli
T1 sequence (Q9BQ50 44-279 isoform Q9BQ50-1): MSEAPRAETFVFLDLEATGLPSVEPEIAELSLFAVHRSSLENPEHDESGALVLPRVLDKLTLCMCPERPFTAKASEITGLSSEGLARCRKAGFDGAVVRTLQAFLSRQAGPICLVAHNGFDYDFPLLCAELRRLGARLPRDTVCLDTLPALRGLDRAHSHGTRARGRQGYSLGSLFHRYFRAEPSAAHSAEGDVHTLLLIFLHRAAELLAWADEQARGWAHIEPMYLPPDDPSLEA
Experimental: Degradation of the dsDNA liberates free fluorophore to produce a fluorescent signal. Specifically, 7.5 μL of N-terminally His-Tev tagged human TREX2 (residues M44-A279, expressed in E. coli and purified in house) in reaction buffer (50 mM Tris (pH 7.4), 150 mM NaCl, 2 mM DTT, 0.1 mg/mL BSA, 0.01% (v/v) Tween-20 and 100 mM MgCl2) was added to a 384-well Black ProxiPlate Plus (Perkin Elmer) which already contained compound (150 nL) at varying concentrations as a 10-point dose-response in DMSO. To this was added 7.5 μL of dsDNA substrate (Strand A: 5′ TEX615/GCT AGG CAG 3′; Strand B: 5′ CTG CCT AGC/IAbRQSp (IDT)) in reaction buffer. Final concentrations were 2.5 nM TREX2, 60 nM dsDNA substrate in reaction buffer with 1.0% DMSO (v/v). After 25 minutes at room temperature, reactions were quenched by the addition of 5 μL of stop buffer (same as reaction buffer plus 200 mM EDTA). Final concentrations in the quenched reaction mixture were […] TREX2, 45 nM DNA and 50 mM EDTA in a volume of 20 μL. After a 5-minute incubation at room temperature, plates were read in a laser sourced Envision (Perkin-Elmer), measuring fluorescence at 615 nm following excitation w/570 nm light. IC50 values were calculated by comparing the measured fluorescence at 615 nm ratio relative to control wells pre-quenched w/stop buffer (100% inhibition) and no inhibitor (0% inhibition) controls as using non-linear least square four parameter fits and either Genedata or GraphPad Prism (GraphPad Software, Inc.).

full length human TREX1 = biological target: T2, full length human TREX1 (Homo sapiens, UniProt Q9NSU2); assay: TREX1 Biochemical Assay (fluorescence assay, degradation of dsDNA substrate); conditions: 150 pM TREX1, 60 nM dsDNA substrate, 25 minutes at room temperature; read-out: hTREX1 EC50
T2 construct: N-terminally His-Tev tagged full length human TREX1; His-Tev (His tag with TEV protease site) (N); made in house; host or cells: E. coli
T2 sequence (Q9NSU2 1-314): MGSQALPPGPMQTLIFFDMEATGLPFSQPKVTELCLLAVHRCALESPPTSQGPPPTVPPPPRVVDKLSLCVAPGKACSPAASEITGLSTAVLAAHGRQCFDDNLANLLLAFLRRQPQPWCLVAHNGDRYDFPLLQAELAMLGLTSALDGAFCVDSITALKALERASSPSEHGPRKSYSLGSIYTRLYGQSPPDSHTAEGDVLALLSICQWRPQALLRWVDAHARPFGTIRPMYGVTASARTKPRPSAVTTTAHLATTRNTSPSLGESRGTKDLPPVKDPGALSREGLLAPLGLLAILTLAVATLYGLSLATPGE
Experimental: Degradation of the dsDNA liberates free fluorophore to produce a fluorescent signal. Specifically, 7.5 μL of N-terminally His-Tev tagged full length human TREX1 (expressed in E. coli and purified in house) in reaction buffer (50 mM Tris (pH 7.4), 150 mM NaCl, 2 mM DTT, 0.1 mg/mL BSA, 0.01% (v/v) Tween-20 and 100 mM MgCl2) was added to a 384-well Black ProxiPlate Plus (Perkin Elmer) which already contained compound (150 nL) at varying concentrations as a 10-point dose-response in DMSO. To this was added 7.5 μL of dsDNA substrate (Strand A: 5′ TEX615/GCT AGG CAG 3′; Strand B: 5′ CTG CCT AGC/IAbRQSp (Integrated DNA Technologies)) in reaction buffer. Final concentrations were 150 pM TREX1, 60 nM dsDNA substrate in reaction buffer with 1.0% DMSO (v/v). After 25 minutes at room temperature, reactions were quenched by the addition of 5 μL of stop buffer (same as reaction buffer plus 200 mM EDTA). Final concentrations in the quenched reaction were 112.5 pM TREX1, 45 nM DNA and 50 mM EDTA in a volume of 20 μL. After a 5-minute incubation at room temperature, plates were read in a laser sourced Envision (Perkin-Elmer), measuring fluorescence at 615 nm following excitation w/570 nm light. IC50 values were calculated by comparing the measured fluorescence at 615 nm ratio relative to control wells pre-quenched w/stop buffer (100% inhibition) and no inhibitor (0% inhibition) controls as using non-linear least square four parameter fits and either Genedata or GraphPad Prism (GraphPad Software, Inc.).

Structure (SMILES) | EC50 [1] [µM] | EC50 (full length human TREX1) [µM]
C[C@H](c1cccnc1)N(Cc1ccc(Cl)cc1Cl)C(=O)c1cccc(F)c1 (single isomer, unassigned) [Compound 153] | > 100 | > 10
C[C@@H](c1cccnc1)N(Cc1ccc(Cl)cc1Cl)C(=O)c1cccc(F)c1 (single isomer, unassigned) [Compound 154] | > 100 | > 10
CC[C@H](c1ccc(Cl)cc1Cl)N(Cc1cccnc1)C(=O)c1cccc(F)c1 (single isomer, unassigned) [Compound 157] | 10 to 100 | 0.1 to 1
CC[C@@H](c1ccc(Cl)cc1Cl)N(Cc1cccnc1)C(=O)c1cccc(F)c1 (single isomer, unassigned) [Compound 158] | 10 to 100 | 1 to 10
CC(C)[C@H](c1ccc(Cl)cc1Cl)N(Cc1cccnc1)C(=O)c1cccc(F)c1 (single isomer, unassigned) [Compound 159] | 10 to 100 | 1 to 10
CC(C)[C@@H](c1ccc(Cl)cc1Cl)N(Cc1cccnc1)C(=O)c1cccc(F)c1 (single isomer, unassigned) [Compound 160] | 10 to 100 | 1 to 10
O=C(c1cccc(F)c1)N(Cc1cccnc1)[C@@H](CO)c1ccc(Cl)cc1Cl (single isomer, unassigned) [Compound 161] | 10 to 100 | > 10
O=C(c1cccc(F)c1)N(Cc1cccnc1)[C@H](CO)c1ccc(Cl)cc1Cl (single isomer, unassigned) [Compound 162] | 10 to 100 | 0.1 to 1
C[C@H](c1ccc(C(N)=O)cc1Cl)N(Cc1cccnc1)C(=O)c1cccc(F)c1 (single isomer, unassigned) [Compound 163] | 10 to 100 | 0.1 to 1
C[C@@H](c1ccc(C(N)=O)cc1Cl)N(Cc1cccnc1)C(=O)c1cccc(F)c1 (single isomer, unassigned) [Compound 164] | 10 to 100 | > 10
O=C(c1ccccc1)N(Cc1cccnc1)Cc1cc(Cl)cc(Cl)c1 [Compound 1, N-[(3,5-dichlorophenyl)methyl]-N-[(pyridin-3-yl)methyl]benzamide] | > 100 | > 10
O=C(c1ccccc1)N(Cc1cccnc1)Cc1ccc(Cl)cc1Cl [Compound 2] | > 100 | 1 to 10
O=C(c1ccc(O)c(Cl)c1)N(Cc1cccnc1)Cc1ccc(Cl)cc1Cl [Compound 3] | – | > 10
O=C(c1ccccc1F)N(Cc1cccnc1)Cc1ccc(Cl)cc1Cl [Compound 4] | – | > 10
O=C(c1cccc(Cl)c1)N(Cc1cccnc1)Cc1ccc(Cl)cc1Cl [Compound 5] | > 100 | 1 to 10
O=C(c1ccc(Br)cc1)N(Cc1cccnc1)Cc1ccc(Cl)cc1Cl [Compound 6] | > 100 | 1 to 10
O=C(c1ccc(Cl)c(Cl)c1)N(Cc1cccnc1)Cc1ccc(Cl)cc1Cl [Compound 7] | – | > 10
O=C(c1ccc(Cl)cc1)N(Cc1cccnc1)Cc1ccc(Cl)cc1Cl [Compound 8] | – | > 10
Cc1ccc(C(=O)N(Cc2cccnc2)Cc2ccc(Cl)cc2Cl)c(Br)c1 [Compound 9] | – | > 10
O=C(c1cccc(F)c1)N(Cc1cccnc1)Cc1ccc(Cl)cc1Cl [Compound 11] | 10 to 100 | 1 to 10
O=C(c1ccc(F)c(Br)c1)N(Cc1cccnc1)Cc1ccc(Cl)cc1Cl [Compound 12] | > 100 | 1 to 10
COc1cccc(C(=O)N(Cc2cccnc2)Cc2ccc(Cl)cc2Cl)c1 [Compound 13] | – | 1 to 10
O=C(c1ccc(Cl)cc1Br)N(Cc1cccnc1)Cc1ccc(Cl)cc1Cl [Compound 14] | – | > 10

Structure (SMILES) | EC50 [1] [µM] | EC50 (full length human TREX1) [µM]
O=C(c1ccc(O)c(Br)c1)N(Cc1cccnc1)Cc1ccc(Cl)cc1Cl [Compound 15] | – | > 10
Cc1cc(C(=O)N(Cc2cccnc2)Cc2ccc(Cl)cc2Cl)ccc1Br [Compound 16] | – | > 10
O=C(c1ccc(Cl)cc1O)N(Cc1cccnc1)Cc1ccc(Cl)cc1Cl [Compound 17] | – | > 10
O=C(c1ccc(Br)cc1Cl)N(Cc1cccnc1)Cc1ccc(Cl)cc1Cl [Compound 18] | – | > 10
O=C(c1ccc(F)c(Cl)c1)N(Cc1cccnc1)Cc1ccc(Cl)cc1Cl [Compound 19] | > 100 | 1 to 10
O=C(c1cc(Cl)ccc1O)N(Cc1cccnc1)Cc1ccc(Cl)cc1Cl [Compound 20] | – | > 10
O=C(c1ccc(O)c(F)c1)N(Cc1cccnc1)Cc1ccc(Cl)cc1Cl [Compound 21] | – | > 10
COc1cc(C(=O)N(Cc2cccnc2)Cc2ccc(Cl)cc2Cl)cc(Cl)c1O [Compound 22] | > 100 | > 10
O=C(c1cccc(F)c1)N(Cc1cccnc1)Cc1cc(Cl)cc(Cl)c1 [Compound 23] | > 100 | > 10
O=C(c1ccc(-c2ccccc2)cc1)N(Cc1cccnc1)Cc1ccc(Cl)cc1Cl [Compound 24] | > 100 | > 10
O=C(c1ccc(Oc2ccc(Cl)cc2)cc1)N(Cc1cccnc1)Cc1ccc(Cl)cc1Cl [Compound 25] | > 100 | 1 to 10
O=C(c1ccc(Br)cc1)N(Cc1cccnc1)Cc1cc(Cl)cc(Cl)c1 [Compound 26] | > 100 | > 10
O=C(c1cc(Cl)c(O)c(Cl)c1)N(Cc1cccnc1)Cc1ccc(Cl)cc1Cl [Compound 27] | > 100 | > 10
O=C(c1ccc2ccccc2c1)N(Cc1cccnc1)Cc1ccc(Cl)cc1Cl [Compound 28] | > 100 | > 10
O=C(c1ccc(Cl)cc1)N(Cc1cccnc1)Cc1cc(Cl)cc(Cl)c1 [Compound 29] | > 100 | > 10
O=C(c1cccc(Br)c1)N(Cc1cccnc1)Cc1cc(Cl)cc(Cl)c1 [Compound 30] | > 100 | > 10
O=C(c1cccc(Oc2ccccc2)c1)N(Cc1cccnc1)Cc1ccc(Cl)cc1Cl [Compound 31] | > 100 | > 10
COc1cc(C(=O)N(Cc2cccnc2)Cc2ccc(Cl)cc2Cl)cc(Br)c1OC [Compound 32] | > 100 | > 10
O=C(c1ccc(Oc2ccccc2)cc1)N(Cc1cccnc1)Cc1ccc(Cl)cc1Cl [Compound 33] | > 100 | > 10
O=C(c1cccc(Cl)c1)N(Cc1cccnc1)Cc1cc(Cl)cc(Cl)c1 [Compound 34] | > 100 | > 10
O=C(c1ccc(O)c(Cl)c1)N(Cc1cccnc1)Cc1cc(Cl)cc(Cl)c1 [Compound 35] | > 100 | > 10
COc1cccc(C(=O)N(Cc2cccnc2)Cc2cc(Cl)cc(Cl)c2)c1 [Compound 36] | > 100 | > 10
